Experimental findings from US12150995B2, “IRAK degraders and uses thereof” (Kymera Therapeutics, Inc., priority 2020, dated 2024) are described below.

This assay addresses T1, IRAK4 (Homo sapiens, UniProt Q9NWZ3).
T1 construct: endogenous in cells; host or cells: OCI-LY10
T1 sequence (Q9NWZ3 1-460): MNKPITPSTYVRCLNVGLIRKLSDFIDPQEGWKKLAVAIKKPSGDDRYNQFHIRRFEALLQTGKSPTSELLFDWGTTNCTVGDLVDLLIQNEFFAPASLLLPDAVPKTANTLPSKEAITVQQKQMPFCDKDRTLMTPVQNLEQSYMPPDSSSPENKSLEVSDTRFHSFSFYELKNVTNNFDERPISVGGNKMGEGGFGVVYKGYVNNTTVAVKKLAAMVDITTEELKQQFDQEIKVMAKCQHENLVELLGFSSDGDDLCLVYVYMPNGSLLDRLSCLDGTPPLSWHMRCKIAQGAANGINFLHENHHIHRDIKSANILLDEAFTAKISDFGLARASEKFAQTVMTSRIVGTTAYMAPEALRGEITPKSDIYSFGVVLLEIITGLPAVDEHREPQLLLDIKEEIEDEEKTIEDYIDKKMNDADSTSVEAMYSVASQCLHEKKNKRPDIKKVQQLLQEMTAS
Kind of assay: IRAK4 MSD Degradation in OCI-LY10. The format is cell-based. The settings on record: OCI-LY10 cells, Meso Scale Discovery, incubated 4 to 24 hours. Summed up: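 IRAK4 degradation was quantified by Meso Scale electrochemiluminescence (anti-IRAK4 capture and detection antibodies) in lysates of treated OCI-LY10 cells. Compounds were dosed at 8 concentrations (1:3 dilutions, top 1 to 10 μM) for 4 to 24 h; DC50 derived by three-parameter logistic fitting.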

`COc1cc2nn([C@H]3CC[C@H](CN4CC5(CN(Cc6cccc7c6n(C)c(=O)n7C6CCC(=O)NC6=O)C5)C4)CC3)cc2cc1NC(=O)c1cncc(C#N)c1` (stereo partly drawn) [I-244]: the DC50 lay within 100 to 200 nM. Compound `COc1cc2nn([C@H]3C[C@H](CN4CCC(c5cccc6c5n(C)c(=O)n6C5CCC(=O)NC5=O)CC4)C3)cc2cc1NC(=O)c1cccc(C(F)(F)F)n1` (stereo partly drawn) [I-33] had a DC50 of less than 10 nM.

For the compound `CN(C[C@H]1CC[C@H](n2cc3cc(NC(=O)c4cncc(C#N)c4)c(OC(F)(F)F)cc3n2)CC1)C1CCN(c2cccc3c2n(C)c(=O)n3C2CCC(=O)NC2=O)CC1` (stereo partly drawn) [I-249], the DC50 is more than 200 nM.

In the case of `N#Cc1cnc2c(C(=O)Nc3ccc4nn([C@H]5CC[C@H](CN6CCC(c7cccc8c(N9CCC(=O)NC9=O)cncc78)CC6)CC5)cc4c3)cnn2c1` [I-204, 6-Cyano-N-[2-[4-[[4-[4-(2,4-dioxohexahydropyrimidin-1-yl)-8-isoquinolyl]-1-piperidyl]methyl]cyclohexyl]indazol-5-yl]pyrazolo[1,5-a]pyrimidine-3-carboxamide], the DC50 was in the range of 10 to 50 nM. On to `Cn1c(=O)n(C2CCC(=O)NC2=O)c2cccc(N3CCN(C[C@H]4CC[C@H](n5cc6cc(NC(=O)c7cccc(C(F)(F)F)n7)c(Cl)cc6n5)CC4)CC3)c21` (stereo partly drawn) [I-360], for which the half-maximal degradation concentration (DC50) lay in the range of 10 to 50 nM. With `Cn1c(=O)n(C2CCC(=O)NC2=O)c2ccc(F)c(C3CCN(C[C@H]4CC[C@H](n5cc6cc(NC(=O)c7cccc(C(F)(F)F)n7)ncc6n5)CC4)CC3)c21` (stereo partly drawn) [I-82], the DC50 was less than 10 nM.

Regarding `Cn1c(=O)n(C2CCC(=O)NC2=O)c2cccc(C3CCN(C[C@H]4C[C@H](n5cc6cc(NC(=O)c7cccc(C(F)(F)F)n7)c(F)cc6n5)C4)CC3)c21` (stereo partly drawn) [I-30], the DC50 was 10 to 50 nM. In turn, `COc1cc2nn([C@H]3CC[C@H](CN4CCC(c5cc(C)cc6c5n(C)c(=O)n6C5CCC(=O)NC5=O)CC4)CC3)cc2cc1NC(=O)c1cccc(C(F)(F)F)n1` (stereo partly drawn) [I-35] came in with a DC50 of less than 10 nM. Consider `COc1cc2nn([C@H]3CC[C@H](CN4CCN(c5cccc6c5n(C)c(=O)n6C5CCC(=O)NC5=O)CC4)CC3)cc2cc1NC(=O)c1ccnc(C(F)(F)F)n1` (stereo partly drawn) [I-298], for which the DC50 was less than 10 nM. Compound `Cn1c(=O)n(C2CCC(=O)NC2=O)c2cccc(N3CCN(C[C@H]4CC[C@H](n5cc6cc(NC(=O)c7cccc(C(F)(F)F)n7)c([S+](C)[O-])cc6n5)CC4)CC3)c21` (stereo partly drawn) [I-308] displayed a DC50 of less than 10 nM. In turn, `Cn1c(=O)n(C2CCC(=O)NC2=O)c2cccc(N3CC4CC(C3)N4C[C@H]3CC[C@H](n4cc5cc(NC(=O)c6cccc(C(F)(F)F)n6)c(C(C)(C)O)cc5n4)CC3)c21` (stereo partly drawn) [I-232] gave a DC50 of less than 10 nM. Then `CN(CCCO[C@H]1C[C@H](Nc2cccc3c2C(=O)N(C2CCC(=O)NC2=O)C3=O)C1)C[C@H]1CC[C@H](n2cc3cc(NC(=O)c4cccc(C(F)(F)F)n4)ncc3n2)CC1` (stereo partly drawn) [I-353], with more than 200 nM; and `COc1cc2nn([C@H]3CC[C@H](CN4C5CC4CN(c4cccc6c4n(C)c(=O)n6C4CCC(=O)NC4=O)C5)CC3)cc2cc1NC(=O)c1cncc(C#N)c1` (stereo partly drawn) [I-258], with more than 200 nM. The compound `CC(C)(O)c1cc2nn([C@H]3CC[C@H](CN4C5CC4CN(c4cccc6c(N7CCC(=O)NC7=O)cncc46)C5)CC3)cc2cc1NC(=O)c1cccc(C(F)(F)F)n1` [I-228] yielded a DC50 of less than 10 nM. `CSc1cc2nn([C@H]3CC[C@H](CN4CCN(c5cccc6c5n(C)c(=O)n6C5CCC(=O)NC5=O)CC4)CC3)cc2cc1NC(=O)c1cccc(C(F)(F)F)n1` (stereo partly drawn) [I-307] came in with a DC50 of less than 10 nM.

As usually defined, the DC50 is the midpoint of the concentration-degradation curve. Read a high DC50 as degradation only at high concentration.
